{
  "source": "patent US20200131196A1",
  "about": "(Mount Tam Therapeutics, Inc., priority 2017, published 2020)",
  "key": {"[1]": {"assay": "Whole blood concentrations in mice after IP dosing (LC-MS/MS)", "assay_type": "in vivo, mouse", "settings": "for Formula II Concentrations in Mouse Whole Blood, individual animals / Formula II Concentrations in Mouse Whole Blood, Mean: 10 mg/kg IP QD × 3 days; for Formula II Concentrations in Mouse Whole Blood, individual animals: animals 10, 11, 12; for approximate mean concentration in whole blood: up to six hours following administration", "description": "Shown below are whole blood concentrations following administration of the compound of Formula II to mice. The compound of Formula II was administered to mice at 2 mg/kg or 10 mg/kg and the concentration of the compound in whole blood determined. These determinations were made using protein precipitation, liquid chromatography (LC), and mass spectrometry (MS/MS). Ten μl aliquots of whole blood and matrix calibration standards were distributed in a 96-well plate; 10 μl aliquots of blank matrix for matrix blanks and control blanks were included as controls. Ten μl of water was added to each sample followed by vortexing. One hundred sixty […] of internal standard was added to each sample except the matrix blanks; 160 μl 70:30 water:acetonitrile (ACN) was added to matrix blanks. This was followed by a […]. One hundred fifty μl of the resultant supernatant was then transferred to a new 96-well plate and the samples blown to dryness at 35° C. The resultant product was then reconstituted with 90 μl ACN."}, "[2]": {"settings": "mouse, in vivo, ip", "excerpt": "(§1) Tumor growth was monitored daily. […] Significance was set at p≤0.05."}, "SK-NEP-1": {"system": "SK-NEP-1", "assay": "OncoPanel cell proliferation assay, SK-NEP-1", "quoted_text": "Cells were seeded into 384-well plates and incubated in a humidified atmosphere of 5% CO2 at 37° C. Compounds were added the day following cell seeding. At the same time, a time zero untreated cell plate was generated. After a 3-day incubation period, cells were fixed and stained to allow fluorescence imaging of nuclei. Compounds (1 mM stock solutions) were serially diluted in half-log steps from the highest test concentration (1 micromol), and assayed over 10 concentrations with a maximum assay concentration of 0.1% DMSO. Automated fluorescence microscopy was carried out using a Molecular Devices ImageXpress Micro XL high-content imager, and images were collected with a 4× objective. 16-bit TIFF images were acquired and analyzed with MetaXpress 5.1.0.41 software.\nCell proliferation was measured by the fluorescence intensity of an incorporated nuclear dye. The output is referred to as the relative cell count, where the measured nuclear intensity is transformed to percent of control (POC) using the following formula:\nCellular response parameters were calculated using nonlinear regression to a sigmoidal single-site dose response model:\nGI50 is the concentration needed to reduce the observed growth by half (midway between the curve maximum and the time zero value). […] In rare instances, values <0 or >10 may be observed. […] Curve-fitting, calculations, and report generation was performed using a custom data reduction engine and MathIQ based software (AIM)."}, "[3]": {"settings": "at 30 days", "excerpt": "as §1"}},
  "note": "“And” between values parts separate entries of the source, which are not always exact repeats. Identical values can stand only once. Like-named read-outs stand apart in the source and are kept apart here.",
  "data": [
    {"smiles": "CO[C@H]1C[C@@H]2CC[C@@H](C)[C@@](O)(O2)C(=O)C(=O)N2CCCC[C@H]2C(=O)O[C@H]([C@H](C)C[C@H]2C[C@H]3C[C@@H]2C[C@@H]3O)CC(=O)[C@H](C)/C=C(\\C)[C@@H](O)[C@@H](OC)C(=O)[C@H](C)C[C@H](C)/C=C/C=C/C=C/1C", "note": "[Formula II, C37-[(1R,2S,4R,5S)-5-hyhroxybicyclo[2.2.1]heptane] rapamycin]", "values": [
      {"measurement": "Formula II Concentrations in Mouse Whole Blood, individual animals", "setting": "[1]; Day 3, 1.00 hrs", "result": "AQL and 3420 ng/mL and 987 ng/mL"},
      {"measurement": "Formula II Concentrations in Mouse Whole Blood, Mean", "setting": "[1]; Day 3, 2.00 hrs", "result": 3199, "unit": "ng/mL"},
      {"measurement": "Formula II Concentrations in Mouse Whole Blood, individual animals", "setting": "[1]; Day 3, 2.00 hrs", "result": "5170 ng/mL and 3650 ng/mL and 777 ng/mL"},
      {"measurement": "Formula II Concentrations in Mouse Whole Blood, Mean", "setting": "[1]; Day 3, 6.00 hrs", "result": 2317, "unit": "ng/mL"},
      {"measurement": "Formula II Concentrations in Mouse Whole Blood, individual animals", "setting": "[1]; Day 3, 6.00 hrs", "result": "3330 ng/mL and 2890 ng/mL and 730 ng/mL"},
      {"measurement": "Formula II Concentrations in Mouse Whole Blood, Mean", "setting": "[1]; Day 3, 24.0 hrs", "result": 223, "unit": "ng/mL"},
      {"measurement": "Formula II Concentrations in Mouse Whole Blood, individual animals", "setting": "[1]; Day 3, 24.0 hrs", "result": "223 ng/mL and 323 ng/mL and 124 ng/mL"},
      {"measurement": "approximate mean concentration in whole blood", "setting": "[1]; about 2 mg/kg", "result": "383 to 651", "unit": "ng/mL"},
      {"measurement": "approximate mean concentration in whole blood", "setting": "[1]; about 10 mg/kg", "result": "657 to 3323", "unit": "ng/mL"},
      {"measurement": "concentration at 24 h", "setting": "[1]; mouse, whole blood, intraperitoneal, 2 mg/kg, 2 mg/kg IP QD × 3 days, Day 1, 24.0 hrs, animals 7, 8, 9, read-out: Formula II Concentrations in Mouse Whole Blood, individual animals", "result": 12.2, "unit": "ng/mL"},
      {"measurement": "concentration at 24 h", "setting": "[1]; mouse, whole blood, intraperitoneal, 2 mg/kg, 2 mg/kg IP QD × 3 days, Day 1, 24.0 hrs, read-out: Formula II Concentrations in Mouse Whole Blood, Mean", "result": 15.1, "unit": "ng/mL"},
      {"measurement": "concentration at 1 h", "setting": "[1]; mouse, whole blood, intraperitoneal, 2 mg/kg, 2 mg/kg IP QD × 3 days, Day 2, 1.00 hrs, read-out: Formula II Concentrations in Mouse Whole Blood, Mean", "result": 404, "unit": "ng/mL"},
      {"measurement": "concentration at 2 h", "setting": "[1]; mouse, whole blood, intraperitoneal, 2 mg/kg, 2 mg/kg IP QD × 3 days, Day 2, 2.00 hrs, read-out: Formula II Concentrations in Mouse Whole Blood, Mean", "result": 435, "unit": "ng/mL"},
      {"measurement": "concentration at 6 h", "setting": "[1]; mouse, whole blood, intraperitoneal, 2 mg/kg, 2 mg/kg IP QD × 3 days, Day 2, 6.00 hrs, animals 7, 8, 9, read-out: Formula II Concentrations in Mouse Whole Blood, individual animals", "result": 553, "unit": "ng/mL"},
      {"measurement": "concentration at 6 h", "setting": "[1]; mouse, whole blood, intraperitoneal, 2 mg/kg, 2 mg/kg IP QD × 3 days, Day 2, 6.00 hrs, read-out: Formula II Concentrations in Mouse Whole Blood, Mean", "result": 579, "unit": "ng/mL"},
      {"measurement": "concentration at 24 h", "setting": "[1]; mouse, whole blood, intraperitoneal, 2 mg/kg, 2 mg/kg IP QD × 3 days, Day 2, 24.0 hrs, read-out: Formula II Concentrations in Mouse Whole Blood, Mean", "result": 43.7, "unit": "ng/mL"},
      {"measurement": "concentration at 1 h", "setting": "[1]; mouse, whole blood, intraperitoneal, 2 mg/kg, 2 mg/kg IP QD × 3 days, Day 3, 1.00 hrs, animals 7, 8, 9, read-out: Formula II Concentrations in Mouse Whole Blood, individual animals", "result": 628, "unit": "ng/mL"},
      {"measurement": "concentration at 24 h", "setting": "[1]; mouse, whole blood, intraperitoneal, 2 mg/kg, about 2 mg/kg, at about 24 hours following administration, read-out: approximate mean concentration in whole blood", "result": "15 to 43.7", "unit": "ng/mL"},
      {"measurement": "concentration at 24 h", "setting": "[1]; mouse, whole blood, intraperitoneal, 10 mg/kg, about 10 mg/kg, at about 24 hours following administration, read-out: approximate mean concentration in whole blood", "result": "21 to 138", "unit": "ng/mL"},
      {"measurement": "Body Wt. % Δ from Baseline, Mean", "setting": "[2]", "result": 14.68, "unit": "%"},
      {"measurement": "Body Wt. % Δ from Baseline, Median", "setting": "[2]", "result": 14.64, "unit": "%"},
      {"measurement": "Change in Body Weight Day 1-30, Mean", "setting": "[2]", "result": 3.13},
      {"measurement": "Change in Body Weight Day 1-30, Median", "setting": "[2]", "result": 3.08},
      {"measurement": "Day 30 Body Weight, Mean", "setting": "[2]", "result": 24.37, "unit": "g"},
      {"measurement": "Day 30 Body Weight, Median", "setting": "[2]", "result": 24.12, "unit": "g"},
      {"measurement": "EC50", "setting": "SK-NEP-1; Homo sapiens, SK-NEP-1, read-out: Cell Count EC50", "result": 2.48, "unit": "nM"},
      {"measurement": "GI50", "setting": "SK-NEP-1; Homo sapiens, SK-NEP-1, read-out: Cell Count GI50", "result": 3.27, "unit": "nM"},
      {"measurement": "IC50", "setting": "SK-NEP-1; Homo sapiens, SK-NEP-1, read-out: Cell Count IC50", "result": 18.1, "unit": "nM"},
      {"measurement": "Cell Count Activity Area", "setting": "SK-NEP-1; SK-NEP-1", "result": 3.36},
      {"measurement": "Relative cell count (%) Mean", "setting": "SK-NEP-1; SK-NEP-1, 1.00E+00 microM", "result": 41.8, "unit": "%"},
      {"measurement": "Relative cell count (%) Mean", "setting": "SK-NEP-1; SK-NEP-1, 1.00E-01 microM", "result": 45.4, "unit": "%"},
      {"measurement": "Relative cell count (%) Mean", "setting": "SK-NEP-1; SK-NEP-1, 1.00E-02 microM", "result": 59.8, "unit": "%"},
      {"measurement": "Relative cell count (%) Mean", "setting": "SK-NEP-1; SK-NEP-1, 1.00E-03 microM", "result": 86.5, "unit": "%"},
      {"measurement": "Relative cell count (%) Mean", "setting": "SK-NEP-1; SK-NEP-1, 1.01E-04 microM", "result": 106.4, "unit": "%"},
      {"measurement": "Relative cell count (%) Mean", "setting": "SK-NEP-1; SK-NEP-1, 3.16E-01 microM", "result": 44.3, "unit": "%"},
      {"measurement": "Relative cell count (%) Mean", "setting": "SK-NEP-1; SK-NEP-1, 3.17E-02 microM", "result": 49.3, "unit": "%"},
      {"measurement": "Relative cell count (%) Mean", "setting": "SK-NEP-1; SK-NEP-1, 3.17E-03 microM", "result": 67.1, "unit": "%"},
      {"measurement": "Relative cell count (%) Mean", "setting": "SK-NEP-1; SK-NEP-1, 3.18E-04 microM", "result": 94.6, "unit": "%"},
      {"measurement": "Relative cell count (%) Mean", "setting": "SK-NEP-1; SK-NEP-1, 3.18E-05 microM", "result": 99.0, "unit": "%"},
      {"measurement": "Percent Survival", "setting": "[3]", "result": 100, "unit": "%"},
      {"measurement": "Percent Survival", "setting": "[3]; listed as Formula I", "result": 100, "unit": "%"}
    ]}
  ]
}
